Source: US20240197666A1, “DITERPENOID COMPOUNDS THAT ACT ON PROTEIN KINASE C (PKC)” (K-Gen Therapeutics, Inc., priority 2021, published 2024)
Read-outs that look alike come from different tables or passages of the source.

What was measured:
C1b domain of human PKCε = target: T1, C1b domain of human PKCε (Homo sapiens, UniProt Q02156); test: biochemical; format: binding; details: 3H-PDBu competition
T1 construct: Genes encoding C1b domains of human PKCα, δ, ε, θ, and PKD1 (PKCμ) were synthesized; made in house; host or cells: E. coli BL21(DE3)
T1 sequence (Q02156 242-292 limits assumed): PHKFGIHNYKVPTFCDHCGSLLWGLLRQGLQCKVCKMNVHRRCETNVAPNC
Outline: (§1)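 Ki derived by Cheng-Prusoff from IC50, with each protein batch's measured ^3H-PDBu Kd. Displacement of ^3H-PDBu from E. coli-produced GST-fused C1b domains or full-length human PKC was run 10 min at 37°C plus 20 min on ice, with filter capture and scintillation counting.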

C1b domain of human PKCθ = target: T2, C1b domain of human PKCθ (Homo sapiens, UniProt Q04759); test: biochemical; format: binding; details: 3H-PDBu competition
T2 construct: Genes encoding C1b domains of human PKCα, δ, ε, θ, and PKD1 (PKCμ) were synthesized; made in house; host or cells: E. coli BL21(DE3)
T2 sequence (Q04759 231-281 limits assumed): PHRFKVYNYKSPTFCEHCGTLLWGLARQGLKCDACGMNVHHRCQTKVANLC
Outline: as §1

A549 cell line = test: Proliferation of A549 (CellTiter Glo); format: cell-based; details: Homo sapiens, read-out: IC50 μM (A549 Cell Line)
Outline: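 Compound effect on proliferation was read as CellTiter Glo luminescence after 96 h exposure to a 3-fold dilution series (≤0.25% DMSO). A549 cells, which carry activating K-Ras, were plated at 1,000/well one day before dosing. IC50, relative IC50 and maximal inhibition were fitted from % inhibition versus DMSO control.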

Panc2.13 (Pancreatic) = test: Proliferation of Panc2.13; format: cell-based; details: for IC50: read-out: IC50 Panc2.13 (Pancreatic)
Experimental: (§2) The diterpenoid compounds were tested in A549, a non-small cell lung cancer cell line harboring a K-Ras activating mutation. Briefly, A549 cells at a density of 1,000 cells/well were seeded in 96-well plates and incubated at 37° C. for 24 hours. A series of different concentrations of compound stocks (500×) were prepared by 3-fold serial dilution in DMSO. These compounds were further diluted in culture media and then added to cells so that the final DMSO concentration was not exceeding 0.25%. After 96 hours of incubation, 50 μL of CellTiter Glo reagent (Promega) was added to each well and luminescence was measured after 10 minutes using EnVision (PerkinElmer). Luminescence from cells treated with DMSO alone was set as Max and % of inhibition was calculated as follows: Inhibition %=(Max-Sample value)/Max×100. Data was analyzed using XL-fit software (ID Business Solutions Ltd.) and IC50, relative IC50, and % of top inhibition was calculated. Some of the compounds in this disclosure were very potent in blocking proliferation of A549 lung cancer cells at low nM range. In addition, potency of inhibiting A549 proliferation correlated well with its binding affinity to PKCs for this series of compounds. In other words, higher affinity binders had stronger inhibitory effects on A549 proliferation. This further support the notion that activation, rather than inhibition, of certain PKC isoforms is required to block proliferation of cancer cells, some of which may harbor K-Ras mutations. This is in sharp contrast to previous literature and common belief that inhibition of PKC is necessary to block cancer cell growth (Kang, 2014, New Journal of Science, 2014:1-36). Data presented here is in agreement with recent findings that many loss-of-function but not gain-of-function mutations of PKC isoforms have been identified in many human cancers (Antal et al., 2015, Cell, 160:489-502).
(§3) The compounds in this disclosure were tested for their potency in blocking proliferation of a few other cancer cells lines, including K-Ras mutant pancreatic cell lines Panc2.13 and KP-4, leukemia cell line HL-60, and lymphoma cell lines Namalwa and Mino. Similar procedures as in Example 67 were followed. Initial cell numbers seeded in 96-well plates were different for different cell lines: 3000 cells/well for Panc2.13; 800-1000 cells/well for KP-4; 5000 cells/well for HL-60; 5000-10000 cells/well for Namalwa and Mino. A ratio of (IC50 of K101)/(IC50 of compound) (data in parenthesis in Table 5) was used to normalize the compound potency from different assay batches to a common comparator K101.

KP-4 (Pancreatic) = test: Proliferation of KP-4; format: cell-based; details: read-out: IC50 KP-4 (Pancreatic)
Experimental: as §2, §3

HL-60 (Leukemia) = test: Proliferation of HL-60; format: cell-based; details: for IC50: Homo sapiens
Namalwa (Lymphoma) = test: Proliferation of Namalwa; format: cell-based; details: for IC50: read-out: IC50 Namalwa (Lymphoma)
Outline: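 Panc2.13 was seeded at 3000 cells/well, KP-4 at 800-1000, HL-60 at 5000 and Namalwa at 5000-10000, then given 3-fold serial dilutions of compound with final DMSO ≤0.25% for 96 h at 37° C. CellTiter Glo luminescence was read and inhibition calculated against DMSO-only wells. IC50 was normalised to comparator K101.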

Mino (Lymphoma) = test: Proliferation of Mino; format: cell-based; details: for IC50: Homo sapiens, MINO, read-out: IC50 Mino (Lymphoma)
Outline: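 Luminescent ATP read-out (CellTiter Glo) after 96 h compound exposure gave % inhibition relative to DMSO-treated cells, from which IC50 was fitted. Seeding densities were line-specific, from 800 to 10000 cells/well. Potency across batches was normalised to reference compound K101.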

PANC1 cells = test: Sphere formation assay; format: cell-based; details: Homo sapiens, PANC-1, read-out: concentration exhibiting at least 50% inhibition on the sphere forming efficiency
Experimental: A group of diterpenoid compounds of the present disclosure were tested to assess their effects on blocking formation of spheres from cancer cell lines such as PANC1, a K-Ras mutant pancreatic cell line. Briefly, PANC1 cells were harvested, re-suspended as single cell suspensions, counted and seeded into Ultra Low Attachment Culture 96-well plate (Corning, Cat #3474) at 100 cells/well in 100 μl of complete media (with 10% FBS) containing 2% Matrigel (Corning, Cat #354234) and DMSO or compounds. Six replicates per condition were seeded. The seeded cells were placed in the 37° C. tissue culture incubator. 10 μl of low serum containing media (with 0.1% FBS) was added to each well every week. Spheres formed after 3-4 weeks were counted. Sphere forming efficiency was expressed as percentage of # of spheres/ # of cells seeded.

[1] = test system: NFκB-driven transcription in HeLa-NFκB luciferase reporter cell line; test: NFκB luciferase reporter assay; details: Homo sapiens, HeLa, 16 h, read-out: NFκB-luc HeLa cells EC50 (μM)
Experimental: A HeLa-NFκB luciferase reporter cell line (Wuxi Biology) was used to assess a group of PKC activator compounds for their ability to activate NFκB-driven transcription. […] One set of cells was assayed for luciferase activity (Promega, Cat #E1500) and the other set was assayed to determine the number of viable cells (for cell number normalization) using CellTiter-Glo (CTG) kit (Promega, Cat #G7570) according to manufacture's procedures. Normalized data (luciferase value/CTG value) were analyzed using GraphPad Prism5 to calculate EC50 for each compound (see Table 8).
To assess if activation of PKC is required for these compounds to activate NFκB, several PKC inhibitors including broad-spectrum and conventional PKC inhibitors were tested. In the assay described above, PKC inhibitors were added at the same time as the PKC activator compounds.

[2] = test system: phosphorylation of PKCμ, PKCδ and Erk1/2 in A549 lung cancer cells; test: Western blot of activation of PKC and downstream target protein in A549 cells; format: cell-based; details: 3 μM, 30 minutes
Experimental: According to the methods described in patent (WO/2017/083783) A549 lung cancer cells (˜3 million cells) were seeded in 10 cm tissue culture dishes (or ˜1 million cells in 6 cm dish) and grown overnight. Cells were then treated with different drugs at indicated concentrations for 30 minutes. Cell lysate preparation, protein quantitation, SDS-PAGE, and Western blotting procedures are described (WO/2017/083783). β-actin or Vinculin was used as loading controls. Imagequant LAS4000 (GE) was used to scan membranes if secondary antibodies anti-mouse IgG HRP conjugate or anti-rabbit IgG HRP conjugate (dilutions from 1:2000-1:10000) were used. For ProteinSimple Wes system, manufacture's procedure was followed (ProteinSimple 12-230 kDa Wes Separation Module) for sample preparation, loading, running, and data analysis.
Phosphorylation of these sites has been linked to acute activation or catalytic activity of the PKC isoforms and Erk1/2. High level of phosphorylation indicates strong activation.
A subset of the diterpenoid compounds with good binding affinity to novel PKC isoforms and PKCμ was tested at two different concentrations in A549 cells to assess activation of PKCμ, PKCδ, and Erk1/2 by Western blot analysis. In addition to the phospho-specific antibodies described above, an additional phospho-specific antibody P-PKCδ (S299) (Abcam cat #133456) was also used. This antibody has been shown in the literature (Durgan et al., FEBS Lett. 2007, 581(18):3377-81, Novel phosphorylation site markers of protein kinase C delta activation) to be able to detect activation of PKCδ. K-101 (prostratin, 1 μM) was included as reference compounds.

C1b domain of human PKCδ = target: T3, C1b domain of human PKCδ (Homo sapiens, UniProt Q05655); test: biochemical; format: binding; details: 3H-PDBu competition
T3 construct: Genes encoding C1b domains of human PKCα, δ, ε, θ, and PKD1 (PKCμ) were synthesized; made in house; host or cells: E. coli BL21(DE3)
T3 sequence (Q05655 230-280 limits assumed): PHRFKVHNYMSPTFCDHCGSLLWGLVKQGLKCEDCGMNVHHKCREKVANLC
Outline: as §1

C1b domain of human PKCα = target: T4, C1b domain of human PKCα (Homo sapiens, UniProt P17252); test: biochemical; format: binding; details: 3H-PDBu competition
T4 construct: Genes encoding C1b domains of human PKCα, δ, ε, θ, and PKD1 (PKCμ) were synthesized; made in house; host or cells: E. coli BL21(DE3)

[3] = target: T5, C1b domain of human PKD1 (PKCμ) (Homo sapiens, UniProt Q15139); test: Competitive 3H-PDBu binding assay, C1b domain of PKD1 (PKCμ); details: 3H-PDBu competition
T5 construct: Genes encoding C1b domains of human PKCα, δ, ε, θ, and PKD1 (PKCμ) were synthesized; made in house; host or cells: E. coli BL21(DE3)
T5 sequence (Q15139 270-320 limits assumed): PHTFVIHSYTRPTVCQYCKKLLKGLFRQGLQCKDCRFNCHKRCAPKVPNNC
Experimental: Compounds described in this disclosure were tested for binding affinity to C1b domain of PKC isoforms. Compound binding affinity to C1b domain of PKC isoforms was derived from competitive binding assay using radioactive tracer ^3H-PDBu and recombinant GST-C1b or full-length of human PKC proteins based on modified procedures from Methods in Molecular Biology, vol.
Genes encoding C1b domains of human PKCα, δ, ε, θ, and PKD1 (PKCμ) were synthesized and inserted into pGEX-2TK or pGEX-4T1 vectors for expression and production of GST-C1b proteins in E. coli BL21(DE3) via IPTG induction. The target proteins were purified by glutathione sepharose 4B and followed by ion exchange chromatography if needed to achieve purity >70%. Aliquots of the purified proteins were stored at −80 degree for binding assay (storage buffer: 20 mM Tris pH 8.0, 200 mM NaCl, 10% glycerol, 1 mM DTT).
The plate was incubated at 37° C. on a shaker at 300 rpm for 10 minutes and then put on ice for 20 minutes. […] The bottom of the filter plate was sealed and 50 μL of MicroScint-20 (PerkinElmer) cocktail was added to each well. ^3H-PDBu trapped in each well was counted using PerkinElmer MicroBeta2 Reader. Data were analyzed using GraphPad Prism5 with the model “log(inhibitor) vs. response-variable slope” to fit the IC50, and then IC50 was transformed to Ki using Cheng-Prusoff equation: Ki=IC50/(1+added radio ligand/Kd). Kd is the binding affinity of each protein preparation to ^3H-PDBu, determined experimentally.

| SMILES | Ki (C1b domain of human PKCε) [nM] | Ki (C1b domain of human PKCθ) [nM] | IC50 (A549 cell line; A549, 96 h) [µM] | ratio (IC50 of K101)/(IC50 of compound) Panc2.13 (Panc2.13 (Pancreatic)) | IC50 (Panc2.13 (Pancreatic)) [nM] | IC50 (KP-4 (Pancreatic)) [nM] | ratio (IC50 of K101)/(IC50 of compound) HL-60 (HL-60 (Leukemia)) | IC50 (HL-60 (Leukemia); HL-60, read-out: IC50 HL-60 (Leukemia)) [nM] | ratio (IC50 of K101)/(IC50 of compound) Namalwa (Namalwa (Lymphoma)) | IC50 (Namalwa (Lymphoma)) [nM] | ratio (IC50 of K101)/(IC50 of compound) Mino (Mino (Lymphoma)) | IC50 (Mino (Lymphoma)) [nM] | IC50 (PANC1 cells) [nM] | EC50 [1] [µM] | phosphorylation of PKCμ, PKCδ and Erk1/2 [2] | Ki (C1b domain of human PKCδ) [nM] | IC50 (HL-60 (Leukemia); HL-60, 96 h, read-out: IC50 HL-60 (Leukemia)) [nM] | Ki (C1b domain of human PKCα) [nM] | Ki [3] [nM] | IC50 (A549 cell line; A549, 96 hours, CellTiter Glo) [µM] |
| --- | --- | --- | --- | --- | --- | --- | --- | --- | --- | --- | --- | --- | --- | --- | --- | --- | --- | --- | --- | --- |
| CC1=C[C@H]2[C@@]3(O)[C@H](C)C[C@]4(OC(=O)[C@@H](N)CCC5CCCCC5)[C@H]([C@@H]3C=C(CO)C[C@]2(O)C1=O)C4(C)C | 10 to 30 | 10 to 30 | 0.01 to 0.03 | 20.5 | 30 to 60 | 10 to 30 | 27.7 | 10 to 30 | 7.42 | 1 to 10 | 33 | 1 to 10 | ≤ 150 | 0.01 to 0.03 |  |  |  |  |  |  |
| CC1=C[C@H]2[C@@]3(O)[C@H](C)C[C@]4(OC(=O)CCc5ccccn5)[C@H]([C@@H]3C=C(CO)C[C@]2(O)C1=O)C4(C)C |  |  | 0.6 to 1 |  |  |  |  |  |  |  |  |  |  |  | induced phosphorylation |  |  |  |  |  |
| CC1=C[C@H]2[C@@]3(O)[C@H](C)C[C@]4(OC(=O)C(C)(C)C)[C@H]([C@@H]3C=C(CO)C[C@]2(O)C1=O)C4(C)C | 10 to 30 |  | 0.06 to 0.1 | 6.29 | 100 to 200 | 100 to 200 | 5.29 |  | 1.38 | 30 to 60 | 6.82 | 10 to 30 | ≤ 150 | 0.06 to 0.1 |  | 10 to 30 | 100 to 600 |  |  |  |
| CC1=C[C@H]2[C@@]3(O)[C@H](C)C[C@]4(OC(=O)[C@@H](N)C/C=C/c5ccccc5)[C@H]([C@@H]3C=C(CO)C[C@]2(O)C1=O)C4(C)C |  |  |  |  |  |  |  |  |  |  |  |  |  |  |  | 5 to 10 |  | 100 to 200 | < 5 | 0.06 to 0.1 |
| CC1=C[C@H]2[C@@]3(O)[C@H](C)C[C@]4(OC(=O)CCc5ccncc5)[C@H]([C@@H]3C=C(CO)C[C@]2(O)C1=O)C4(C)C |  |  | 1 to 2 |  |  |  |  |  |  |  |  |  |  |  | induced phosphorylation |  |  |  |  |  |
